Laboratory results published in patent publication US11234977B2, “Fused tricyclic pyrazolo-dihydropyrazinyl-pyridone compounds as antivirals” (priority 2017, dated 2022).

Tested on: HBsAg secretion, HepG2-Clone42 cells (Tet-inducible HBV-expressing cell line, HBV ayw strain)
Test: HBsAg assay (HBsAg ELISA of secreted HBV sAg in HepG2-Clone42 cells)
Type: cell-based
Settings: Hepatitis B virus, read-out: HBsAg EC50
Procedure: HepG2-Clone42, a Tet-inducible HBV-expressing cell line with a stably integrated 1.3mer copy of the HBV ayw strain, was generated based on the Tet-inducible HepAD38 cell line with slight modifications. Ladner S K, et al., Antimicrobial Agents and Chemotherapy. 41(8):1715-1720 (1997). HepG2-Clone42 cells were cultured in DMEM/F-12+ Glutamax™ (Life Technologies, Carlsbad, Calif., USA), supplemented with 10% fetal bovine serum (Life Technologies), G-418 (Corning, Manassas, Va., USA) at a final concentration of 0.5 mg/mL, and 5 μg/mL Doxycycline (Sigma, St. Louis, Mo., USA) and maintained in 5% CO2 at 37° C.
HepG2-Clone42 cells were seeded into black clear-bottom 96-well plates at a concentration of 6.0×10^4 cells/well. 24 hours post-seeding, the cells were treated with 200 μl/well of media containing five-fold serial dilutions of compounds in DMSO. DMSO alone was used as the no drug control. The final DMSO concentration in all wells was 0.5%.
The HBsAg ELISA kit (Alpha Diagnostic International, San Antonio, Tex., USE, Catalog #4110) was used to determine the level (semi-quantitative) of secreted HBV sAg. The HBSAg ELISA assay was performed following the manufacturer's protocol as described.
Step 1. Pipet 100 μL each of compound or DMSO treated samples into HBsAg ELISA plates. Seal plates and incubate at room temp for 60 minutes.
Step 2. Aspirate samples and wash three times with Wash Buffer. Dispense 100 μL of antibody-HRP conjugate to each well. Incubate at room temp for 30 minutes.
Step 3. Aspirate samples and wash three times with Wash Buffer. Add 100 μL of TMB Substrate to all wells and incubate 15 minutes at room temp.
Step 4. Dispense 100 μL of Stop Solution to each well. Measure absorbance of ELISA plate at 450 nm.
Dose-response curves were generated and the EC50 value was defined as the compound concentration at which HBsAg secretion was reduced 50% compared to the DMSO control.
EC50 values were determined as follows:
Determine the percent of HBsAg secretion inhibition. Calculate the percent inhibition on of HBsAg secretion inhibition using the following equation: (XC-MB)/(MDMB) • where XC is the absorbance signal from compound-treated well; MB is average absorbance signal (background signal) for column 12 (no cells+HBsAg ELISA sample buffer) and MD is average absorbance signal from DMSO-treated wells. Then calculate EC50 values by non-linear regression using a four parameter curve logistic equation. The curve fit model employed is XLFit Dose Response One Site Model 204: y=(A+((B−A)/(1+(10^((C−x)*D))))) where A is the minimum y value, B is the maximum y value, C is the log EC50 value, and D is the slope factor. +++means<1 nm; ++means≥1 nm and ≤10 nm and +means>10 nm.

Row | Structure (SMILES) | EC50 [nM]
1 | COCCCOc1nn2c(c1Cl)-c1cc(=O)c(C(=O)O)cn1[C@H](C(C)(C)C)C2 [Compound 1.1, (R)-6-(tert-butyl)-1-chloro-2-(3-methoxypropoxy)-10-oxo-6,10-dihydro-5H-pyrazolo[1,5-a]pyrido[2,1-c]pyrazine-9-carboxylic acid] | < 1
2 | COCCCOc1cc2n(n1)C[C@@H](C(C)(C)C)n1cc(C(=O)O)c(=O)cc1-2 [Compound 1.2, (R)-6-(tert-butyl)-2-(3-methoxypropoxy)-10-oxo-6,10-dihydro-5H-pyrazolo[1,5-a]pyrido[2,1-c]pyrazine-9-carboxylic acid] | > 10
3 | COCCCOc1nn2c(c1Br)-c1cc(=O)c(C(=O)O)cn1[C@H](C(C)(C)C)C2 [Compound 1.3, (R)-1-bromo-6-(tert-butyl)-2-(3-methoxypropoxy)-10-oxo-6,10-dihydro-5H-pyrazolo[1,5-a]pyrido[2,1-c]pyrazine-9-carboxylic acid] | 1 to 10
4 | CC(C)c1cc2n(n1)CC(C(C)(C)C)n1cc(C(=O)O)c(=O)cc1-2 (centres unmarked) [Compound 2.1, 6-(tert-butyl)-2-isopropyl-10-oxo-6,10-dihydro-5H-pyrazolo[1,5-a]pyrido[2,1-c]pyrazine-9-carboxylic acid] | > 10
5 | CC(C)(C)[C@@H]1Cn2nc(-c3ccccc3)c(Cl)c2-c2cc(=O)c(C(=O)O)cn21 [Compound 3.1, (R)-6-(tert-butyl)-1-chloro-10-oxo-2-phenyl-5,6-dihydro-10H-pyrazolo[1,5-a]pyrido[2,1-c]pyrazine-9-carboxylic acid] | < 1
6 | COc1ccccc1-c1nn2c(c1Cl)-c1cc(=O)c(C(=O)O)cn1[C@H](C(C)(C)C)C2 [Compound 3.2, (R)-6-(tert-butyl)-1-chloro-2-(2-methoxyphenyl)-10-oxo-5,6-dihydro-10H-pyrazolo[1,5-a]pyrido[2,1-c]pyrazine-9-carboxylic acid] | > 10
7 | CC(C)[C@@H]1Cn2nc(-c3ccccc3)cc2-c2cc(=O)c(C(=O)O)cn21 [Compound 3.3, (R)-6-isopropyl-10-oxo-2-phenyl-5,6-dihydro-10H-pyrazolo[1,5-a]pyrido[2,1-c]pyrazine-9-carboxylic acid] | > 10
8 | CC(C)[C@@H]1Cn2nc(-c3ccccc3)c(Cl)c2-c2cc(=O)c(C(=O)O)cn21 [Compound 3.4, (R)-1-chloro-6-isopropyl-10-oxo-2-phenyl-6,10-dihydro-5H-pyrazolo[1,5-a]pyrido[2,1-c]pyrazine-9-carboxylic acid] | > 10
